Results: ChEMBL document CHEMBL5465560, “Selectivity Literature for EUbOPEN Chemogenomic Library” (2024)

How the values were obtained:
[1] = target: T1, Phosphatidylinositol 3-kinase C2 domain-containing subunit gamma (Homo sapiens) (UniProt O75747); assay: Selectivity interaction (KinomeScan (DiscoverX)) EUB0001079a PIK3C2G; settings: at 1 µM
T1 sequence (whole entry): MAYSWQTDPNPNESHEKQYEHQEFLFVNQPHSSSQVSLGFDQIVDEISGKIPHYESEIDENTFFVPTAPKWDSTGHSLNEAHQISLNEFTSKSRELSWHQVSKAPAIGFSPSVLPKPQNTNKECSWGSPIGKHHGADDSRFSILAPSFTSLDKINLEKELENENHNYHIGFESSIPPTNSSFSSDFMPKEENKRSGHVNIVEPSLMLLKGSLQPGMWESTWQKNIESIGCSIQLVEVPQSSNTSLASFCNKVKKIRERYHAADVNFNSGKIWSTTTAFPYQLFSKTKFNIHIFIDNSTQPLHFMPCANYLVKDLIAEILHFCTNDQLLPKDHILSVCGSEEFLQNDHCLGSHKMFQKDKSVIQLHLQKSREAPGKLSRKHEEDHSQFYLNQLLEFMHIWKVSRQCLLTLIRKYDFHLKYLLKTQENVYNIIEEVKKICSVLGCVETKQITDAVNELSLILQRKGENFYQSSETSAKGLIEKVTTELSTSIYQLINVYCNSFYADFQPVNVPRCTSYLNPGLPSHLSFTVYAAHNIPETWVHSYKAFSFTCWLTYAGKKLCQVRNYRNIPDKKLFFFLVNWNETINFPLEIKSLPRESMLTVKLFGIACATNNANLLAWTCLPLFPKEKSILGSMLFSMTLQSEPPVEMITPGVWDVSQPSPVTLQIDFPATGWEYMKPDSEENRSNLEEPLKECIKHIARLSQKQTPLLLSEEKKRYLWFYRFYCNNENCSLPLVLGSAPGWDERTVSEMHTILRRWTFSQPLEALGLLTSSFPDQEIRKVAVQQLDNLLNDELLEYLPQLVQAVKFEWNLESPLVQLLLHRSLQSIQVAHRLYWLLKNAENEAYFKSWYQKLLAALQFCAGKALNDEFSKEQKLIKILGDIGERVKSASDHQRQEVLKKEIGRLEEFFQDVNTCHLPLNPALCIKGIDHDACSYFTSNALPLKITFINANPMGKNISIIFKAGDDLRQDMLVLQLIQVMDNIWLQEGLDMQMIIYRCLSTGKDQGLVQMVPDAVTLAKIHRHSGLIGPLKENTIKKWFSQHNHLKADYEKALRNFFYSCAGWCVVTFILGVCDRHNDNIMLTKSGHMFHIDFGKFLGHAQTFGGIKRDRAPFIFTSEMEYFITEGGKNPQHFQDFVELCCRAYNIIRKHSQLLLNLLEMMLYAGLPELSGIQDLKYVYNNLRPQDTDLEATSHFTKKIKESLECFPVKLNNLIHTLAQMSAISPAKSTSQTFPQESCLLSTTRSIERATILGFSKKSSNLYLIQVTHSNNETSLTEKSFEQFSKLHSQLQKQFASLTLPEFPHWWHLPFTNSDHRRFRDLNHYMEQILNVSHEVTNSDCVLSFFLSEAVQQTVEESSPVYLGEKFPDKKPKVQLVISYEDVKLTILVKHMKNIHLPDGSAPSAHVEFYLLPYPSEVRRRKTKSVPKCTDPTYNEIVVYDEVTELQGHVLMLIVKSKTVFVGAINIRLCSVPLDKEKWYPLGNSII

[2] = target: T2, Serine/threonine-protein kinase D3 (Homo sapiens) (UniProt O94806); assay: Selectivity interaction (KinomeScan (DiscoverX)) EUB0001079a PRKD3; settings: at 1 µM
T2 sequence (whole entry): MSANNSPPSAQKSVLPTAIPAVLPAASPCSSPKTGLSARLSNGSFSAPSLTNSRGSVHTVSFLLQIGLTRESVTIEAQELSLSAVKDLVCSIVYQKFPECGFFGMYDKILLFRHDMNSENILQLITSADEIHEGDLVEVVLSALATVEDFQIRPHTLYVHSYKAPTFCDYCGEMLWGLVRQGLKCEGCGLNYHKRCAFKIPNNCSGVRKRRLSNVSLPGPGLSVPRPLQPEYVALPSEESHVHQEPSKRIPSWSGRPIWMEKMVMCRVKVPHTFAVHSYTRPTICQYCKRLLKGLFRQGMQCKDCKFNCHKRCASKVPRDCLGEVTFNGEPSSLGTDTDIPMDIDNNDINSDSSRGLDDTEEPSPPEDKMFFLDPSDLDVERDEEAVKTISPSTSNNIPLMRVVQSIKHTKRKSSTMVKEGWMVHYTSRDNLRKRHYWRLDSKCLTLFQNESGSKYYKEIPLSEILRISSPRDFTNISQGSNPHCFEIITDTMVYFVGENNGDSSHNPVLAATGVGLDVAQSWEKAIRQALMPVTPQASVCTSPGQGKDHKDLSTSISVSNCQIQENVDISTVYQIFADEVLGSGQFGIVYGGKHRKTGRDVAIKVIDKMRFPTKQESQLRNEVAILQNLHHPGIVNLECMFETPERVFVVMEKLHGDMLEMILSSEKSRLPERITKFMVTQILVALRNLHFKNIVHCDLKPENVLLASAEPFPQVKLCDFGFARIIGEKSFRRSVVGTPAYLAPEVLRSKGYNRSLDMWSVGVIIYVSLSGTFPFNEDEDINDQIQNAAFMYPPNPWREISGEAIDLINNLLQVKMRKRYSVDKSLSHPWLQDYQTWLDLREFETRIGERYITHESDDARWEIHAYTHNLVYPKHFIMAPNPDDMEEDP

[3] = target: Tyrosine-protein kinase Yes (Homo sapiens) (UniProt P07947); settings: at 10 µM
Tyrosine-protein kinase Yes (Homo sapiens), sequence (P07947 2-543 limits assumed): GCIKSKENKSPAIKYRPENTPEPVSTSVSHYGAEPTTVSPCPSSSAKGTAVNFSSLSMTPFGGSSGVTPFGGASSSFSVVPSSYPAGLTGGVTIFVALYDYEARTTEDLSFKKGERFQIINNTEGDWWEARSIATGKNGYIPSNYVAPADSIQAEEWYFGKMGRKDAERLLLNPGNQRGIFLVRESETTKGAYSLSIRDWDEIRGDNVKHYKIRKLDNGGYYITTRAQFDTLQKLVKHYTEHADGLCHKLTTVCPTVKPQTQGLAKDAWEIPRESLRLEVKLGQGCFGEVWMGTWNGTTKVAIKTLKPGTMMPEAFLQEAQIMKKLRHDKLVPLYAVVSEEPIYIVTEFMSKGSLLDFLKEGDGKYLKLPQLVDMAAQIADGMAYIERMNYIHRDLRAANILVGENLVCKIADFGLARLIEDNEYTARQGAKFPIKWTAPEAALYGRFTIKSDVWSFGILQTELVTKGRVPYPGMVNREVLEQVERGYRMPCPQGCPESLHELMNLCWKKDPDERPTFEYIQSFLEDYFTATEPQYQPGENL

[4] = target: T3, Mitogen-activated protein kinase 13 (Homo sapiens) (UniProt O15264); assay: Selectivity interaction (KinomeScan (DiscoverX)) EUB0001049a MAPK13; settings: at 1 µM
T3 sequence (whole entry): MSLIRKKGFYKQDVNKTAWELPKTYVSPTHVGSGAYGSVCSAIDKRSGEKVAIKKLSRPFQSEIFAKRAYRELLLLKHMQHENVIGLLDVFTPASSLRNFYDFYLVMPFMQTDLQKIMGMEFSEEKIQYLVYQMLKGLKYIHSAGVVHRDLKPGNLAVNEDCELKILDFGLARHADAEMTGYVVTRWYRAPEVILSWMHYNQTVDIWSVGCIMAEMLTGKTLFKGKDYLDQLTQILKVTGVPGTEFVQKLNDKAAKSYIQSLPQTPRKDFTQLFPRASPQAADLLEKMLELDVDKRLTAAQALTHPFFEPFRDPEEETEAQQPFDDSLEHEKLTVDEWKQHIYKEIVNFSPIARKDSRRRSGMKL

[5] = target: Casein kinase I isoform gamma-1 (Homo sapiens) (UniProt Q9HCP0); assay: Selectivity interaction (Kinase panel (Invitrogen)) EUB0000639a CSNK1G1; settings: at 200 nM
Casein kinase I isoform gamma-1 (Homo sapiens), sequence (Q9HCP0 whole entry, looked up, canonical isoform): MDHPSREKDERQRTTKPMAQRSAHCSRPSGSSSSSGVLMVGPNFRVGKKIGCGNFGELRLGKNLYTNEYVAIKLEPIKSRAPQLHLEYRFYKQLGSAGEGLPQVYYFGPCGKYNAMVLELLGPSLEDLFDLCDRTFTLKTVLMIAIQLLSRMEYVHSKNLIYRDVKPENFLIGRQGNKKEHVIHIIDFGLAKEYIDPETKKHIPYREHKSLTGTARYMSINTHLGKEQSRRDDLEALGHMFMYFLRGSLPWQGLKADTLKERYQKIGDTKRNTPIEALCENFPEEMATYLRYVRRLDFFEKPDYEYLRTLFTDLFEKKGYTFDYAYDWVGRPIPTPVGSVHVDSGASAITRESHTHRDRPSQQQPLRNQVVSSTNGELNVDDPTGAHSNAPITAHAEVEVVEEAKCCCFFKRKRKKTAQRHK

[6] = target: Phosphatidylinositol 3-kinase catalytic subunit type 3 (Homo sapiens, UniProt Q8NEB9); assay: Selectivity interaction (ActivX KiNativ screen (kinase selectivity in THP-1 cell lysates)) EUB0000639a PIK3C3; type: subcellular; settings: lysate, at 5 µM
Phosphatidylinositol 3-kinase catalytic subunit type 3, sequence (Q8NEB9 whole entry): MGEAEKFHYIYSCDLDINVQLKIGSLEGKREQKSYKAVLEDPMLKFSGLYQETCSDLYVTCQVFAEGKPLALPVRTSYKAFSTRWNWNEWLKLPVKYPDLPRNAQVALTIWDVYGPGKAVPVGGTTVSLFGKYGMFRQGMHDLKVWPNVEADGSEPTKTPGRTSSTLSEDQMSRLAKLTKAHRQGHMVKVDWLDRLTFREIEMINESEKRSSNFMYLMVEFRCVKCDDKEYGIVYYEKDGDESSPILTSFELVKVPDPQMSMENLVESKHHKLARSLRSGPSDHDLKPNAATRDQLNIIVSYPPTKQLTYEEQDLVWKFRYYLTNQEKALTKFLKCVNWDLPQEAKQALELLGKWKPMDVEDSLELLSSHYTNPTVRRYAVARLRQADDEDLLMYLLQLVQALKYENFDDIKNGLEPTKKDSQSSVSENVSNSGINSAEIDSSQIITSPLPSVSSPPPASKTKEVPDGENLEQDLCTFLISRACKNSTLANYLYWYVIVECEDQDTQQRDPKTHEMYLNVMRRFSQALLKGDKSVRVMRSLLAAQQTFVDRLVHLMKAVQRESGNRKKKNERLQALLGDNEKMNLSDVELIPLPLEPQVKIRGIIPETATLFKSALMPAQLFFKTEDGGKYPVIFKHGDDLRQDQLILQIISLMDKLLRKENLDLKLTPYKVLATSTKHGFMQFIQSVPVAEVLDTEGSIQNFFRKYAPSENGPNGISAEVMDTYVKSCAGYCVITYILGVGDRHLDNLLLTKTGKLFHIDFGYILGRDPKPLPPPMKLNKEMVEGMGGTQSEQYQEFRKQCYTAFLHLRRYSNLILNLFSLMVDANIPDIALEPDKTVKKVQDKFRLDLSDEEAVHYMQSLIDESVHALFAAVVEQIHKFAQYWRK

In the case of `Nc1cnc(N2CCc3cc(S(=O)(=O)Nc4c(F)cc(Cl)cc4F)cc(N4CCCC4=O)c32)nc1` [TP-020n], the % of control [1] is reported as 78% and the % of control [2] is reported as 88%.
With `Cc1cc([C@@H](C)Nc2ccccc2C(=O)O)c2nc(N3CCOCC3)cc(=O)n2c1` [AZD-6482] the % of control [3] was 100%.
`COc1cc(Nc2nc(C)cc(-c3cnn4nc(OC)ccc34)n2)cc(C(F)(F)F)c1` showed a % of control [4] of 95%.
In the case of `CC[C@@H]1[C@H](F)C(=O)N[C@@H]1COc1nccc2cc(C(N)=O)c(OC)cc12` [ZIMLOVISERTIB], the % of inhibition [5] is reported as 69.1% and the % of inhibition [6] is reported as 30.7%.
